Test results: article PMC5424327, “Boosting LPMO-driven lignocellulose degradation by polyphenol oxidase-activated lignin building blocks” (Biotechnology for Biofuels, 2017)

Molecular target: T1, MtPPO7 (Thermothelomyces thermophilus, UniProt A0A1C9CXH9)
T1 construct: secreted enzyme over-expressed in homologous M. thermophila C1 (low protease/low (hemi-)cellulase strain), fractionated from culture broth; KX772412 is printed as 'UniProt' but has GenBank format
T1 sequence (A0A1C9CXH9 19-420): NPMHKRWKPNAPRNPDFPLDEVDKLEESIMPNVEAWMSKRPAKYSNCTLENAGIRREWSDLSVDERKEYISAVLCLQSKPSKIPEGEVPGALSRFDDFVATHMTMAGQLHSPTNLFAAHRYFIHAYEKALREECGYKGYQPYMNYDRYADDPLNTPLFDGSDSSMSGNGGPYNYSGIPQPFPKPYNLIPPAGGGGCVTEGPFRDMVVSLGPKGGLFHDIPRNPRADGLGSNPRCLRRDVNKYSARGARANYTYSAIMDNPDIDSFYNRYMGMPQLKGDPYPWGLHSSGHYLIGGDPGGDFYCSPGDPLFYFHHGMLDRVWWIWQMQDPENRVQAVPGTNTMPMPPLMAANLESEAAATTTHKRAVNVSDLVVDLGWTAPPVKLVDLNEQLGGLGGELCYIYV
Experiment: UHPLC-UV-MSn of substrate conversion
Format: biochemical
Conditions: 2 mM substrate, 5.0 ug/mL enzyme, 50 mM potassium phosphate pH 6.0, 2.5 uM CuCl2, 50 °C, 24 h; ortho-hydroxylation

## COc1ccccc1O [compound 9, Guaiacol]
  conversion (%): The conversion of guaiacol by MtPPO7 resulted in the initial formation of 3-methoxycatechol
